These results are taken from article PMC6155273, “Antiprotozoal Activity of Triazole Derivatives of Dehydroabietic Acid and Oleanolic Acid” (Molecules : A Journal of Synthetic Chemistry and Natural …, 2017).

SMILES strings stand for the structures. Values after ≈ are worked out from the molar mass of the structure shown. Where two headings read alike, the source gives them in different places. Some results are limits rather than exact numbers.

Data set [1] has as its system L. donovani promastigotes. Also noted: method as in PMID 19067375. Conditions: cited from earlier work.
In data set [2] the test system is axenically grown L. donovani amastigotes. Conditions: literature value, no reference given; read-out: IC50 against axenically grown L. donovani amastigotes; cited from earlier work.
Data set [3] relates to L. amazonensis amastigote. Also noted: method as in PMID 15070160. Particulars: cited from earlier work.
The subject of data set [4] is L. braziliensis promastigotes. Briefly: Leishmanicidal activity on L. braziliensis promastigotes (resazurin). It counts as cell-based, Leishmania braziliensis. Conditions: Leishmania braziliensis, 48 h, read-out: Leishmanicidal Activity on Promastigotes, L. braziliensis, IC50. The procedure:
(§1) Culture of L. braziliensis (MHOM/BR/75/M2904), and L. infantum (MHOM/FR/91/LEM2259V) was obtained from the Facultad de Farmacia (Universidad Complutense de, Madrid, Spain). The maintenance of the strains, the form of cultivation, and the isolation of shape promastigota were performed following the procedures described by Roldos et al.. The promastigotes were grown at 22 °C in Schneider’s Drosophila medium supplemented with 20% FBS. The assay was performed using a modification of a previous method. Promastigotes (2 × 10^6 parasites/well) were cultured in 96-well plastic plates. Compounds were dissolved in dimethylsulfoxide (DMSO). Different dilutions of the compounds with a final volume up to 200 µL were added. After 48 h at 26 °C, 20 µL of a 2 mM resazurin solution was added, and the oxidation-reduction was quantified at 570 and 600 nm. The solution of resazurin was prepared at 2.5 mM in phosphate buffered solution (PBS), pH 7.4, and filtered through 0.22 µm prior to use. All tests were carried out in triplicate. Resazurin sodium salt was obtained from Sigma-Aldrich (St. Louis, MO, USA) and stored at 4 °C protected from light. The efficacy of each compound was estimated by calculating the IC50 values.

In data set [5] the test system is L. amazonensis promastigote. Further details: method as in PMID 15070160. Conditions: cited from earlier work.
Data set [6] concerns L. infantum promastigotes. Briefly: Leishmanicidal activity on L. infantum promastigotes (resazurin). The format is cell-based, Leishmania infantum. Particulars: Leishmania infantum, 48 h, read-out: Leishmanicidal Activity on Promastigotes, L. infantum, IC50. As to the method: as §1
A general note: The colour change of resazurin is a common sign of viable cells or microbes.

Data set [7] has as its system L. braziliensis, L. amazonensis, and L. infantum amastigote. Further details: method as in PMID 26772973. Conditions: read-out: IC50 against amastigote of three Leishmania species; cited from earlier work.
The subject of another data set is T. cruzi epimastigotes. As to the kind of experiment: Antiepimastigote activity, T. cruzi CL-B5 lacZ (CPRG). The format is cell-based, Trypanosoma cruzi. Particulars: Trypanosoma cruzi, clone CL-B5, 72 h. The procedure:
For in vitro studies of T. cruzi, the clone CL-B5 was used (donated by Faculty of Pharmacy, Complutense University, Madrid, Spain). Parasites were stably transfected with the Escherichia coli β-galactosidase gene (lacZ). Epimastigotes were grown at 28 °C in liver infusion tryptose broth (Difco, Detroit, MI, USA) with 10% fetal bovine serum (FBS) (Gibco, Carlsbad, CA, USA), penicillin (Ern S.A., Barcelona, Spain), and streptomycin (Reig Jofré S.A., Barcelona, Spain), as described previously, and harvested during the exponential growth phase. Briefly, the screening assay was performed in 96-well microplates (Sarstedt, Inc., Newton, NC, USA) with cultures that had not reached the stationary phase. Epimastigotes were seeded at 2 × 10^5 parasites/mL in 200 µL growth media. The plates were then incubated with the respective compounds at 28 °C for 72 h; afterwards, 50 µL of chlorophenol red-β-D-galactopyranoside (CPRG) solution was added, resulting in a final concentration of 200 µM. The plates were incubated at 37 °C for an additional 4 h and then read at 595 nm. Each concentration was tested in triplicate. The efficacy of each compound was estimated by calculating the IC50 values. These values were calculated by the sigmoidal dose–response curve adjustment using the statistical software program Graph-Pad Prims 3.0 (GraphPhad, San Diego, CA, USA). Benznidazole was used as the reference drug.

The test system of data set [8] is L. braziliensis, L. amazonensis, and L. infantum promastigotes. Also noted: method as in PMID 26772973. Particulars: read-out: IC50 against promastigotes of three Leishmania species; cited from earlier work.
Data set [9] is described as follows: Cytotoxicity on NCTC-Clone 929 fibroblasts (resazurin). It counts as cell-based. Conditions: mouse. As to the method:
The cell line used was NCTC-Clone 929, which was grown in Minimal Essential Medium (Sigma) supplemented with 10% heat-inactivated FBS, penicillin G (100 U/mL), and streptomycin (100 µg/mL). Cell cultures were maintained at 37 °C in a humidified 5% CO2 atmosphere. The procedure for cell viability measurement was evaluated with resazurin by a colorimetric method. The cells were plated in 96-microtiter plates at 3 × 10^4 cells per well in a 100 µL growth medium. The cells were grown overnight at 37 °C, 5% CO2. Thereafter, the medium was removed and the compounds were added in a 200 µL medium for 24 h. After incubation, 20 µL of a 2 mM resazurin solution was added to each well. The plates were incubated for 3 h to allow optimal oxidation-reduction. The reduction of resazurin was determined by dual wavelength absorbance measurement at 490 and 595 nm. Background was subtracted. Each concentration was assayed three times. Medium and drug controls were used in each test as blanks.

In the case of `CC(C)c1cc2c(cc1O)[C@@]1(C)CCCC(C)(C)[C@@H]1CC2` [ferruginol], in data set [1], the “IC50 against L. donovani promastigotes” value was 3.5 µg/mL (≈ 12.2 µM) and the “IC90 against L. donovani promastigotes” value was 7.0 µg/mL (≈ 24.4 µM).

For the molecule `COc1c(C(C)C)cc2c(c1O)[C@@]1(C(=O)O)CCCC(C)(C)[C@@H]1CC2` [12-methoxycarnosic acid], the half-maximal inhibitory concentration (IC50) (commonly the concentration needed to halve the response being measured) in data set [2] was 0.75 µM.

On to `CC(C)c1c(O)ccc2c1CC[C@H]1C(C)(C)CCC[C@]21C` [totarol], for which, in data set [1], the “IC50 against L. donovani promastigotes” value is 3.5 µg/mL (≈ 12.2 µM) and the “IC90 against L. donovani promastigotes” value was 6.9 µg/mL (≈ 24.1 µM).

Turning to `CC1(C)CC[C@]2(C(=O)O)CC[C@]3(C)C(=CC[C@@H]4[C@@]5(C)CC[C@H](O)C(C)(C)[C@@H]5CC[C@]43C)[C@@H]2C1` [OA, Oleanolic acid], in data set [3], the “IC50 against amastigote stage of L. amazonensis” value was 11 µg/mL. Besides, the half-inhibitory concentration (IC50) in data set [4] is over 256 µg/mL; in [6], over 256 µg/mL; in data set [7], 38 to 69 µM; with T. cruzi epimastigotes, over 256 µg/mL; in data set [8] it was 30 to 66 µM. Further, the “IC50 against promastigote stage of L. amazonensis” value in data set [5] is 10 µg/mL.

For the molecule `C[C@H]1[C@H](C)CC[C@]2(C(=O)O)CC[C@]3(C)C(=CC[C@@H]4[C@@]5(C)CC[C@H](O)C(C)(C)[C@@H]5CC[C@]43C)[C@H]12` [Ursolic acid], the “IC50 against amastigote stage of L. amazonensis” value in data set [3] is 27 µg/mL. For the same molecule, the “IC50 against promastigote stage of L. amazonensis” value in data set [5] is 5 µg/mL.

With `C#CCCC(=O)O[C@H]1CC[C@@]2(C)C(CC[C@]3(C)C2CC=C2[C@@H]4CC(C)(C)CC[C@]4(C(=O)OC)CC[C@]23C)C1(C)C` (stereo partly drawn) [Compound 18], in [9], the IC50 at 24 h was over 256 µg/mL. The IC50 (in [4]; in data set [6]; in the data set on T. cruzi epimastigotes) was over 256 µg/mL in each case.

Molecule `Cc1ccc(S(=O)(=O)n2cc(CCCCC(=O)OC[C@]3(C)CCC[C@]4(C)c5ccc(C(C)C)cc5CCC34)nn2)cc1` (stereo partly drawn) [Compound 16] displayed a 50% inhibitory concentration (IC50) at 24 h in data set [9] of 129 µg/mL (≈ 218 µM). For the same molecule, the IC50 in data set [4] (promastigotes) came to 71 µg/mL (≈ 120 µM); in data set [6] (promastigotes), 73 µg/mL (≈ 123 µM); with T. cruzi epimastigotes it was 199 µg/mL (≈ 336 µM).

For the molecule `COC(=O)[C@]12CCC(C)(C)C[C@H]1C1=CCC3[C@@]4(C)CC[C@H](OC(=O)CCc5cn(-c6ccc(OC)cc6)nn5)C(C)(C)C4CC[C@@]3(C)[C@]1(C)CC2` (stereo partly drawn) [Compound 24], the IC50 at 24 h in data set [9] was over 256 µg/mL. Further, the IC50 (in data set [4]; in data set [6]; in the data set on T. cruzi epimastigotes) was over 256 µg/mL each time.

As for `C#CCCC(=O)O[C@H]1CC[C@@]2(C)C(CC[C@]3(C)C2CC=C2[C@@H]4CC(C)(C)CC[C@]4(C(=O)O)CC[C@]23C)C1(C)C` (stereo partly drawn) [Compound 17], it took 196 µg/mL (≈ 365 µM) to reach half-maximal inhibition in [9] (IC50 at 24 h). Besides, the half-maximal inhibitory concentration (IC50) was over 256 µg/mL in data set [4] (promastigotes), over 256 µg/mL in data set [6] (promastigotes) and 252 µg/mL (≈ 469 µM) in the data set with T. cruzi epimastigotes.

For `Cc1ccc(S(=O)(=O)n2cc(CCC(=O)O[C@H]3CC[C@@]4(C)C(CC[C@]5(C)C4CC=C4[C@@H]6CC(C)(C)CC[C@]6(C(=O)O)CC[C@]45C)C3(C)C)nn2)cc1` (stereo partly drawn) [Compound 27], the IC50 at 24 h in data set [9] is over 256 µg/mL. For the same molecule, the IC50 in data set [4] (promastigotes) is over 256 µg/mL; in data set [6] (promastigotes), over 256 µg/mL; in the data set with T. cruzi epimastigotes, 43 µg/mL (≈ 58.6 µM).

Take `CC(C)c1ccc2c(c1)CCC1[C@](C)(COC(=O)CCc3cn(-c4ccccc4)nn3)CCC[C@]21C` (stereo partly drawn) [Compound 5]: the IC50 at 24 h in [9] is over 256 µg/mL. In addition, the half-maximal inhibitory concentration (IC50) in data set [4] (promastigotes) stood at 218 µg/mL (≈ 449 µM); in data set [6] (promastigotes) it was 193 µg/mL (≈ 397 µM); in the data set on T. cruzi epimastigotes, 223 µg/mL (≈ 459 µM).

In data set [9], `C#CCCCC(=O)O[C@H]1CC[C@@]2(C)C(CC[C@]3(C)C2CC=C2[C@@H]4CC(C)(C)CC[C@]4(C(=O)OC)CC[C@]23C)C1(C)C` (stereo partly drawn) [Compound 20] gave an IC50 at 24 h of over 256 µg/mL. The half-maximal inhibitory concentration (IC50) (in data set [4]; in data set [6]; in the data set on T. cruzi epimastigotes) was over 256 µg/mL throughout.

As to `CC(C)c1ccc2c(c1)CCC1[C@](C)(C(=O)OCCc3cn(CSc4ccccc4)nn3)CCC[C@]21C` (stereo partly drawn) [Compound 4], the concentration for half-maximal inhibition (IC50) at 24 h in data set [9] was 189 µg/mL (≈ 365 µM). Moreover, the 50% inhibitory concentration (IC50) in data set [4] (promastigotes) came to 64 µg/mL (≈ 124 µM); in [6] (promastigotes), 64 µg/mL (≈ 124 µM); in the data set on T. cruzi epimastigotes, 61 µg/mL (≈ 118 µM).

As for `COC(=O)[C@]12CCC(C)(C)C[C@H]1C1=CCC3[C@@]4(C)CC[C@H](OC(=O)CCc5cn(CSc6ccccc6)nn5)C(C)(C)C4CC[C@@]3(C)[C@]1(C)CC2` (stereo partly drawn) [Compound 30], the IC50 at 24 h in data set [9] is over 256 µg/mL. Also, the IC50 (in data set [4]; in [6]; with T. cruzi epimastigotes) was over 256 µg/mL throughout.

`CC(C)c1ccc2c(c1)CCC1[C@](C)(COC(=O)CCc3cn(Cc4cccc(Cl)c4)nn3)CCC[C@]21C` (stereo partly drawn) [Compound 13]: in data set [9], the IC50 at 24 h is over 256 µg/mL. For the same molecule, the figures for the IC50 (in [4] (promastigotes); in data set [6]; in the data set on T. cruzi epimastigotes) were 242 µg/mL (≈ 453 µM), over 256 µg/mL and over 256 µg/mL, respectively.

`CC(C)c1ccc2c(c1)CCC1[C@](C)(COC(=O)CCc3cn(Cc4ccccc4)nn3)CCC[C@]21C` (stereo partly drawn) [Compound 7] gave an IC50 at 24 h in data set [9] of over 256 µg/mL. Further, the half-maximal inhibitory concentration (IC50) (in [4]; in [6]; in the data set with T. cruzi epimastigotes) was over 256 µg/mL each time.

In [9], `CC(C)c1ccc2c(c1)CCC1[C@](C)(COC(=O)CCCCc3cn(Cc4ccccc4)nn3)CCC[C@]21C` (stereo partly drawn) [Compound 8] yielded an IC50 at 24 h of over 256 µg/mL. Further, the 50% inhibitory concentration (IC50) (in data set [4]; in [6]; in the data set on T. cruzi epimastigotes) was over 256 µg/mL throughout.

In [9], `C#CCCCC(=O)O[C@H]1CC[C@@]2(C)C(CC[C@]3(C)C2CC=C2[C@@H]4CC(C)(C)CC[C@]4(C(=O)O)CC[C@]23C)C1(C)C` (stereo partly drawn) [Compound 19] showed an IC50 at 24 h of over 256 µg/mL. Moreover, the values for the IC50 (in [4] (promastigotes); in data set [6] (promastigotes); in the data set with T. cruzi epimastigotes) were 109 µg/mL (≈ 198 µM), 155 µg/mL (≈ 281 µM) and over 256 µg/mL, respectively.
